Assays:
[1] = Inhibition of rice alpha-glucosidase by glucose B-test; parameters: species or system Oryza sativa
[2] = Inhibition of rat liver beta-galactosidase by spectrophotometry
Prunus dulcis = assay: Inhibition of almond beta-glucosidase at 1000 uM by spectrophotometry
[3] = Inhibition of green coffee bean alpha-galactosidase by spectrophotometry; parameters: species or system Coffea arabica
Rattus norvegicus [4] = species on record: Rattus norvegicus; assay: Inhibition of Wistar rat intestinal cellobiase at 1000 uM by glucose B-test
Rattus norvegicus [5] = species on record: Rattus norvegicus; assay: Inhibition of rat liver lysosomal beta-glucosidase at 1000 uM by spectrophotometry
[6] = molecular target: Sucrase-isomaltase, intestinal (Rattus norvegicus, UniProt P23739); assay: Inhibition of Wistar rat intestinal isomaltase by glucose B-test
Rattus norvegicus [7] = species on record: Rattus norvegicus; assay: Inhibition of rat liver lysosomal alpha-galactosidase at 1000 uM by spectrophotometry
Rattus norvegicus [8] = species on record: Rattus norvegicus; assay: Inhibition of rat liver beta-galactosidase at 1000 uM by spectrophotometry
[9] = molecular target: Sucrase-isomaltase, intestinal (Rattus norvegicus) (UniProt P23739); assay: Inhibition of Wistar rat intestinal isomaltase at 1000 uM by glucose B-test
Bos taurus = species on record: Bos taurus; assay: Inhibition of bovine liver beta-galactosidase at 1000 uM by spectrophotometry
Coffea arabica = assay: Inhibition of green coffee bean alpha-galactosidase at 1000 uM by spectrophotometry
Oryza sativa = assay: Inhibition of rice alpha-glucosidase at 1000 uM by glucose B-test
[10] = Inhibition of Wistar rat intestinal cellobiase by glucose B-test
[11] = Inhibition of rat liver lysosomal beta-glucosidase by spectrophotometry
[12] = Inhibition of almond beta-glucosidase by spectrophotometry; parameters: species or system Prunus dulcis
[13] = Inhibition of bovine liver beta-galactosidase by spectrophotometry; parameters: species or system Bos taurus

Sequence of Sucrase-isomaltase, intestinal (Rattus norvegicus) (P23739 1-1013 limits assumed): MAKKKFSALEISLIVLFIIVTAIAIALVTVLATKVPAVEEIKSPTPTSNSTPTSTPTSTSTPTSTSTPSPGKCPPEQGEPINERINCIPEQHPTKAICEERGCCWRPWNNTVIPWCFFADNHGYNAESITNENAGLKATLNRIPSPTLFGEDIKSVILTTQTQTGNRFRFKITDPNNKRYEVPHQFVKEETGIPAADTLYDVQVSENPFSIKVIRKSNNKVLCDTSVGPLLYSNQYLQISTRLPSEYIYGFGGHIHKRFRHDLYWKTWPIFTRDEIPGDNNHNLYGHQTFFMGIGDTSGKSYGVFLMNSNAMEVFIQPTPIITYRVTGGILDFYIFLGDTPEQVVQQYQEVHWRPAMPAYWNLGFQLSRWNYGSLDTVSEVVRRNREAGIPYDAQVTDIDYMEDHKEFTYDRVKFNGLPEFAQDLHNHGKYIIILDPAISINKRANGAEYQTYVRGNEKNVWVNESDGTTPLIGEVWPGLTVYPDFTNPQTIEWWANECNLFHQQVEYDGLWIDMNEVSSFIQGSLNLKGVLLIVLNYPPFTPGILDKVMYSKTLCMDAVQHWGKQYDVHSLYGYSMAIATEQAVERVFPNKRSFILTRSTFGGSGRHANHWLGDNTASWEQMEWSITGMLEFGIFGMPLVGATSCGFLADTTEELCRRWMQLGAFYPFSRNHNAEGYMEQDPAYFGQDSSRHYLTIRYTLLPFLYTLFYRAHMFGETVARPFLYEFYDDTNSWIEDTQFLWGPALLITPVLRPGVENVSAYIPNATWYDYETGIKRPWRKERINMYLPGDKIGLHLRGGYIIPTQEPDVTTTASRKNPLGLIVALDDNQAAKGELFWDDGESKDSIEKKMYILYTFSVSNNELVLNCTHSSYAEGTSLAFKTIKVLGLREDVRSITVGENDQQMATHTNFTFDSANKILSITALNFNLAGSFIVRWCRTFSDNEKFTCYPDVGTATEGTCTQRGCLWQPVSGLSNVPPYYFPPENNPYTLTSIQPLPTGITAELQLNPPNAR
Sequence of Sucrase-isomaltase, intestinal (Rattus norvegicus) (P23739 1014-1841 limits assumed): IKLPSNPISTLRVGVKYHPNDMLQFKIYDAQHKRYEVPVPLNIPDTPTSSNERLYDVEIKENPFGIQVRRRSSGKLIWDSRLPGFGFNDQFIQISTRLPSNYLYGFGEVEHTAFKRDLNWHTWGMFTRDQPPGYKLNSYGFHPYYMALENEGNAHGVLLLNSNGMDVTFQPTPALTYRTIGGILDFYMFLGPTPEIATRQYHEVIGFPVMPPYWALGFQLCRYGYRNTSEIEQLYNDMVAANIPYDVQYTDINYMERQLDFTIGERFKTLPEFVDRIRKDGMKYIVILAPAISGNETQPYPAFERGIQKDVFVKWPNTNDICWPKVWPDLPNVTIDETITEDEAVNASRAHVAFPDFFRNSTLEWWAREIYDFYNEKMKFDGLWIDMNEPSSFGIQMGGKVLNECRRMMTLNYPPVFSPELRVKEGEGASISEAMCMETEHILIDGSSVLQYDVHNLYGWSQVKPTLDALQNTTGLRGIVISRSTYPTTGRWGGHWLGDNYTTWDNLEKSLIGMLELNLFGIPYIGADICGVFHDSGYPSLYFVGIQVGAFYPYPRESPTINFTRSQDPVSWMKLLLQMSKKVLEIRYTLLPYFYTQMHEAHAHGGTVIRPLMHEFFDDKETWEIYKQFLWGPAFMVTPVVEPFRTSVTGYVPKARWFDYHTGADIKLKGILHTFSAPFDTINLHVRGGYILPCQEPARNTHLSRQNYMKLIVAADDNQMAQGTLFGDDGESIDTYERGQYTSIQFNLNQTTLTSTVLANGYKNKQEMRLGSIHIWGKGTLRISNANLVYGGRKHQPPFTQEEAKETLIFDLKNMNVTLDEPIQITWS
Sequence of Sucrase-isomaltase, intestinal (P23739 1-1013 limits assumed): as the sequence (P23739 1-1013 limits assumed) above
Sequence of Sucrase-isomaltase, intestinal (P23739 1014-1841 limits assumed): as the sequence (P23739 1014-1841 limits assumed) above

Row | SMILES | IC50 [1] [µM] | IC50 [2] [µM] | inhibition (Prunus dulcis) [%] | IC50 [3] [µM] | inhibition (Rattus norvegicus [4]) [%] | inhibition (Rattus norvegicus [5]) [%] | IC50 [6] [µM] | inhibition (Rattus norvegicus [7]) [%] | inhibition (Rattus norvegicus [8]) [%] | inhibition [9] [%] | inhibition (Bos taurus) [%] | inhibition (Coffea arabica) [%] | inhibition (Oryza sativa) [%] | IC50 [10] [µM] | IC50 [11] [µM] | IC50 [12] [µM] | IC50 [13] [µM]
1 | OC[C@H]1NCC[C@@H](O)[C@@H]1O [FAGOMINE] | 320 | 15 | < 50 | 56 | < 50 | < 50 | 46 | < 50 | – | – | – | – | – | – | – | – | –
2 | OC[C@H]1NCC[C@@H](O)[C@@H]1O[C@@H]1O[C@H](CO)[C@@H](O)[C@H](O)[C@H]1O | – | – | < 50 | – | < 50 | < 50 | – | < 50 | < 50 | < 50 | < 50 | < 50 | < 50 | – | – | – | –
3 | OC[C@H]1NCC[C@@H](O[C@@H]2O[C@H](CO)[C@@H](O)[C@H](O)[C@H]2O)[C@@H]1O | – | – | < 50 | – | < 50 | < 50 | – | < 50 | < 50 | < 50 | < 50 | < 50 | < 50 | – | – | – | –

Second part, the compound after the results:

Row | IC50 [1] [µM] | IC50 [2] [µM] | inhibition (Prunus dulcis) [%] | IC50 [3] [µM] | inhibition (Rattus norvegicus [4]) [%] | inhibition (Rattus norvegicus [5]) [%] | IC50 [6] [µM] | inhibition (Rattus norvegicus [7]) [%] | inhibition (Rattus norvegicus [8]) [%] | inhibition [9] [%] | inhibition (Bos taurus) [%] | inhibition (Coffea arabica) [%] | inhibition (Oryza sativa) [%] | IC50 [10] [µM] | IC50 [11] [µM] | IC50 [12] [µM] | IC50 [13] [µM] | SMILES
4 | 120 | 4 | – | – | – | – | 6 | < 50 | – | – | – | < 50 | – | 100 | 740 | 120 | 3 | OC[C@H]1NCC[C@H](O)[C@@H]1O
5 | – | – | < 50 | – | < 50 | < 50 | – | < 50 | < 50 | < 50 | < 50 | < 50 | < 50 | – | – | – | – | OC[C@H]1NCC[C@H](O)[C@H]1O
